Experimental data: US5242945A, “Tetronic and thiotetronic acid derivatives as phospholipase A2 inhibitors” (American Home Products Corporation, priority 1991, dated 1993)

Experiments:
[1] = system: lipoxygenase and/or cyclooxygenase pathways of arachidonic acid metabolism; assay: in vivo murine zymosan peritonitis assay; parameters: species or system mouse (CD-1); settings: 100 mg/kg p.o.; negative values denote potentiation
Procedure: The compounds of the invention are evaluated for their ability to inhibit the lipoxygenase and/or cyclooxygenase pathways of arachidonic acid metabolism in the in vivo murine zymosan peritonitis assay.
Male CD-1 mice (8 weeks old) are placed in plastic boxes in groups of six. Animals are injected with 1 mL i.p. of either 1% zymosan in pyrogen free 0.9% saline or saline (unstimulated control). Compounds are dosed orally 1 hour prior to zymosan injection. Twenty minutes after zymosan injection, the mice are asphyxiated by CO2 inhalation and the peritoneal cavity is lavaged with 2 mL ice cold Hanks Balanced Salt Solution (HBSS) without CaCl2, MgSO4. 7H2 O and MgCl2.6H2 O. Peritoneal lavage fluid from each mouse is removed by syringe and placed in 5 mL plastic test tubes put on ice and volume is noted. Preparation of samples for evaluation by ELISA is as follows: Samples are centrifuged at 800 xg for 15 minutes; 1 mL of the supernatant is added to 8 mL ice cold methanol and kept at -70° C. overnight to precipitate protein; and samples are then centrifuged at 800 xg for 15 minutes, followed by a drying procedure in a Savant speed vac concentrator. The samples are reconstituted with 1 mL ice cold ELISA buffer and stored at -70° C. until assayed. The assay for eicosanoids (LTC4 and 6-keto-PGF1α) is performed according to conventional ELISA procedures.
Compounds to be tested orally are suspended in 0.5% Tween 80. Compounds to be tested intraperitoneally are suspended in 0.5% methylcellulose in 0.9% saline.
The total metabolite level in lavage fluid/mouse is calculated and the significance is determined by a one-way analysis of variance with LSD comparisons to control (p≤0.05). Drug effects are expressed as a percent change from control values.

[2] = system: purified PLA2, from the diamond back cotton mouth snake (A. piscivorus piscivorus); assay: in vivo PLA2 murine paw edema assay; parameters: species or system A. piscivorus piscivorus PLA2 in CD-1 mice
[3] = system: purified PLA2, from the diamond back cotton mouth snake (A. piscivorus piscivorus); assay: in vivo PLA2 murine paw edema assay; parameters: species or system A. piscivorus piscivorus PLA2 in CD-1 mice; remark: listed apart in the source

SMILES	% Inhibition 6-keto-PGF [1] [%]	% Inhibition LTC4 [1] [%]	% Change in Edema 10 min ([2]; 10 mg/kg i.v.) [%]	% Change in Edema 30 min ([2]; 10 mg/kg i.v.) [%]	% Change in Edema 60 min ([2]; 10 mg/kg i.v.) [%]	% Change in Edema 10 min ([2]; 100 mg/kg p.o.) [%]	% Change in Edema 30 min ([2]; 100 mg/kg p.o.)	% Change in Edema 60 min ([2]; 100 mg/kg p.o.)	% Change in Edema 10 min ([3]; 1 mg/kg i.p.) [%]	% Change in Edema 30 min ([3]; 1 mg/kg i.p.) [%]	% Change in Edema 60 min ([3]; 1 mg/kg i.p.) [%]	% Change in Edema 10 min ([3]; 10 mg/kg i.p.) [%]	% Change in Edema 30 min ([3]; 10 mg/kg i.p.) [%]	% Change in Edema 60 min ([3]; 10 mg/kg i.p.) [%]	% Change in Edema 10 min ([3]; 200 mg/kg p.o.) [%]	% Change in Edema 30 min ([3]; 200 mg/kg p.o.) [%]	% Change in Edema 60 min ([3]; 200 mg/kg p.o.) [%]
CCCCCCCCCC(=O)C1=C(O)COC1=O [Example 1, 4-Hydroxy-3-(1-oxodecyl)-2(5H)-furanone]	-58	-58	-51	-43	-23	-36	-29%	-29%									
CCCCCCCC/C=C\CCCCCCCC(=O)C1=C(O)COC1=O [Example 9, (Z)-4-Hydroxy-3-(1-oxo-9-octadecenyl)-2(5H)-furanone]			-48	-42	-48	-1	+1.5%	+7.1%									
CCCC/C=C\CCCCCCCC(=O)C1=C(O)COC1=O [Example 25, 4-Hydroxy-3-((Z)-1-oxo-9-tetradecenyl)-2(5H)-furanone]									-50	-65	-1	-38	-44	-18	-40	-33	-43
